Laboratory results published in ChEMBL document CHEMBL1153078, “Design and synthesis of acetamido tri- and tetra-hydroxyazepanes: potent and selective beta-N-acetylhexosaminidase inhibitors” (Bioorg Med Chem, 2009).
pKi: −log10 of the molar value. The source made the active and inactive calls. The rule behind the calls is not given here.

Experiments:
[1] = organism: Bos taurus; assay: Inhibition of bovine liver beta-N-acetylglucosaminidase at 240 uM
[2] = tested on: Prunus dulcis; assay: Inhibition of almond beta-glucosidase at 1 mM
[3] = molecular target: T1, Beta-galactosidase (Aspergillus oryzae) (UniProt Q2U7N3); assay: Inhibition of Aspergillus oryzea beta-galactosidase at 1 mM
T1 sequence (whole entry): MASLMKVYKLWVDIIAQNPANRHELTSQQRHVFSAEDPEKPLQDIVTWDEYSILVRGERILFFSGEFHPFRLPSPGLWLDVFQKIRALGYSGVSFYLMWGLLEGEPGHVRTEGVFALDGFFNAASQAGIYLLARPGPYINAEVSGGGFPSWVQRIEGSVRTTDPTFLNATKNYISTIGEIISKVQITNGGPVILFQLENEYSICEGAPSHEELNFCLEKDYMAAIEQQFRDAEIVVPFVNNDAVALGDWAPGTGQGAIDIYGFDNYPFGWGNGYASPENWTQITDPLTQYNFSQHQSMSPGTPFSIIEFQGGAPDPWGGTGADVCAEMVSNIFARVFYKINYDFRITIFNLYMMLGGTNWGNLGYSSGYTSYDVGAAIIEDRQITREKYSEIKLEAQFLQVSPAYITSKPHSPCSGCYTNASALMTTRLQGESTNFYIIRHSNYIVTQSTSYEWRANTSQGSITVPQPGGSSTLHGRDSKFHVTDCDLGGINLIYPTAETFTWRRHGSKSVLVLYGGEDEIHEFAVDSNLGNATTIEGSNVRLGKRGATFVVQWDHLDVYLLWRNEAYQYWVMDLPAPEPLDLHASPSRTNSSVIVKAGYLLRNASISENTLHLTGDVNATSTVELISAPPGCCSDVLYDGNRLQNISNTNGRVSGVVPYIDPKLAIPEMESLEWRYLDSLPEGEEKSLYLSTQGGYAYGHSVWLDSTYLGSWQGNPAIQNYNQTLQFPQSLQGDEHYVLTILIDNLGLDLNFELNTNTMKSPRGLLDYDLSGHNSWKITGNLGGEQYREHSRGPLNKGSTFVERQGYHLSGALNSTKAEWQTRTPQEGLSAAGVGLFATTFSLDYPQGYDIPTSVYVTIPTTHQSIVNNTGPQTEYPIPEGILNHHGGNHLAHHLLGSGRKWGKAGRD

[4] = tested on: Saccharomyces cerevisiae; assay: Inhibition of yeast alpha-glucosidase at 1 mM
[5] = organism: Bos taurus; assay: Inhibition of bovine liver beta-N-acetylglucosaminidase at 1 mM
[6] = tested on: Canavalia ensiformis; assay: Inhibition of jack bean beta-N-acetylglucosaminidase at 1 mM
[7] = tested on: Canavalia ensiformis; assay: Inhibition of jack bean alpha-mannosidase at 1 mM
[8] = Inhibition of jack bean beta-N-acetylglucosaminidase; design: species or system Canavalia ensiformis
[9] = tested on: Canavalia ensiformis; assay: Inhibition of jack bean beta-N-acetylglucosaminidase at 240 uM
[10] = molecular target: T2, Tissue alpha-L-fucosidase (Bos taurus) (UniProt Q2KIM0); assay: Inhibition of bovine epididymis alpha-L-fucosidase at 1 mM
T2 sequence (whole entry): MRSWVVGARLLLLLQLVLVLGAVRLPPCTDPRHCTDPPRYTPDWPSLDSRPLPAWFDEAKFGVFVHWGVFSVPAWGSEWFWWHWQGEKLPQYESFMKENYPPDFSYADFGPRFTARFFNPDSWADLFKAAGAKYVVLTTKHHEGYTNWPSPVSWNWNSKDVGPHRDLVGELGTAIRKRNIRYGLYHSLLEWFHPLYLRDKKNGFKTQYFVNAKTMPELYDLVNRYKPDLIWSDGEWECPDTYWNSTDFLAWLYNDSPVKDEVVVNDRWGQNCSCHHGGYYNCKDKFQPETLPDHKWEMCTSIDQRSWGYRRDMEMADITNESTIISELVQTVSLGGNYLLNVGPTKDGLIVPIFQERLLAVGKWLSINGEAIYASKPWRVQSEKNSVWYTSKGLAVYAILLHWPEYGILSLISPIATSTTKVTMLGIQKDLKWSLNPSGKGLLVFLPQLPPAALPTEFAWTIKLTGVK

[11] = tested on: Aspergillus oryzae; assay: Inhibition of Aspergillus oryzea beta-xylosidase at 1 mM
[12] = tested on: Helix pomatia; assay: Inhibition of snail beta-mannosidase at 1 mM
[13] = Inhibition of bovine liver beta-N-acetylglucosaminidase; design: species or system Bos taurus
[14] = tested on: Oryza sativa; assay: Inhibition of rice alpha-glucosidase at 1 mM
[15] = molecular target: Beta-galactosidase (Escherichia coli) (UniProt Q8VNN2); assay: Inhibition of Escherichia coli beta-galactosidase at 1 mM
[16] = tested on: Aspergillus niger; assay: Inhibition of Aspergillus niger amyloglucosidase at 1 mM
[17] = molecular target: Alpha-galactosidase (Coffea arabica) (UniProt Q42656); assay: Inhibition of coffee bean alpha-galactosidase at 1 mM
Chain of Alpha-galactosidase (Coffea arabica) (Q42656 16-378 limits assumed): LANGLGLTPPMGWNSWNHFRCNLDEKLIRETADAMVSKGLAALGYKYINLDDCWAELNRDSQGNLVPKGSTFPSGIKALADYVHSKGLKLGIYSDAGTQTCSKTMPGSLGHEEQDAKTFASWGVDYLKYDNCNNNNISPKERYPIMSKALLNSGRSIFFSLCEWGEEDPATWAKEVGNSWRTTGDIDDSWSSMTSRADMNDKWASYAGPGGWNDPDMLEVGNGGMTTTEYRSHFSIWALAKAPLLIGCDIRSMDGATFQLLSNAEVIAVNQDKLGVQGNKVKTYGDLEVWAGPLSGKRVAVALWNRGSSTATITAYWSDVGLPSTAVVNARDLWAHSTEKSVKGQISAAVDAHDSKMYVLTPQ

Chain of Beta-galactosidase (Escherichia coli) (Q8VNN2 whole entry, looked up): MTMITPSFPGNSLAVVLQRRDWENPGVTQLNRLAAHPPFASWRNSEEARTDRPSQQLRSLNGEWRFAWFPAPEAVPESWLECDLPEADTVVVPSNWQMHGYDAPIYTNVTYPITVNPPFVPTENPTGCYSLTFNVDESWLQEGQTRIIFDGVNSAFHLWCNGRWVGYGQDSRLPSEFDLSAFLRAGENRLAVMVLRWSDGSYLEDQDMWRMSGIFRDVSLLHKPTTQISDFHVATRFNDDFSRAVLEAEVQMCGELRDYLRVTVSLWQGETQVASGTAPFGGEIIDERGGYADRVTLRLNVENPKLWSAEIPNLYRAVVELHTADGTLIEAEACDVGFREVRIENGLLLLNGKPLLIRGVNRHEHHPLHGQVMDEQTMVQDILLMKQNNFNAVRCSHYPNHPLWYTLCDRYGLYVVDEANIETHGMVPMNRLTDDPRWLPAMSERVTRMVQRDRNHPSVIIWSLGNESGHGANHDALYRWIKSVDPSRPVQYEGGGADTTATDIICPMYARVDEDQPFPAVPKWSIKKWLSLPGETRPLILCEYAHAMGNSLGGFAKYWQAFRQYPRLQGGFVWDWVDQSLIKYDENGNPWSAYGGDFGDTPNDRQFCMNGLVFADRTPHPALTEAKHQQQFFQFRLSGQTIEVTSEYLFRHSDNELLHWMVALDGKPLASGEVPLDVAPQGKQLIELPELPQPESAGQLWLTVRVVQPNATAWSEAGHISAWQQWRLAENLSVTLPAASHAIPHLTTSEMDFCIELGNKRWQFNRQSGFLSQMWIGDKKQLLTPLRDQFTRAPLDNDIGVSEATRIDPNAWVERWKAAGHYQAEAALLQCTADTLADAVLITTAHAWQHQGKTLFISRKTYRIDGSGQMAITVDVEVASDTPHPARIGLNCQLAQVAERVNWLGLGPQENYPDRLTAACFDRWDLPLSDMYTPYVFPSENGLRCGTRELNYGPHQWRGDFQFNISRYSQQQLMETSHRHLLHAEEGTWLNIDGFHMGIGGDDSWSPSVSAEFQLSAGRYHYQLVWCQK

Row | inhibition [1] | inhibition [2] | inhibition [3] | inhibition [4] | inhibition [5] | inhibition [6] | inhibition [7] | pKi [8] | inhibition [9] | inhibition [10] | inhibition [11] | inhibition [12] | pKi [13] | inhibition [14] | inhibition [15] | inhibition [16] | inhibition [17] | Compound
1 | 22% | inactive | inactive | inactive | 99% | 99% | inactive | 6.40 | 22% | 28% | inactive | inactive | 6.15 | inactive | inactive | 19% | inactive | CC(=O)N[C@H]1CNC[C@H](O)[C@@H](O)[C@@H]1O
2 |  | inactive | inactive | inactive | 99% | 98% | 25% | 6.30 |  | inactive | inactive | inactive | 6.22 | inactive | inactive | inactive | inactive | CC(=O)N[C@@H]1[C@@H](O)[C@H](O)[C@@H](CO)NC[C@H]1O
3 |  | inactive | inactive | inactive | 74% | 88% | inactive | 4.52 |  | inactive | inactive | inactive |  | inactive | inactive | inactive | inactive | CC(=O)N[C@H]1CN[C@H](CO)[C@@H](O)[C@H](O)[C@@H]1O
4 |  | inactive | inactive | inactive | 68% | 93% | inactive |  |  | inactive | inactive | inactive |  | inactive | inactive | inactive | inactive | CC(=O)N[C@@H]1CNC[C@H](O)[C@@H](O)[C@@H]1O
